Measurements: US20130059385A1, “METHODS OF GENERATING PLURIPOTENT STEM CELLS” (THE SCRIPPS RESEARCH INSTITUTE, priority 2010, published 2013)

Legend:
MEF cells = settings: cited from earlier work
[1] = tested on: Neural progenitor cells (NPCs); settings: NPC reprogramming, Shi et al. 2008; cited from earlier work
[2] = tested on: MEFs transduced with Oct4, Sox2 and Klf4; assay: Reprogramming of MEFs transduced by Oct4, Sox2 and Klf4 (AP-positive / Oct4-GFP-positive colonies); assay type: cell-based, mouse
Source text: FIG. 1. CHIR99021 promoted the reprogramming of MEFs transduced by Oct4, Sox2 and Klf4. MEFs from 129 strain were transduced with Oct4, Sox2 and Klf4 by retroviruses, and treated the next day with increasing concentrations of CHIR99021 for two week. Three weeks later, AP was detected by staining cells in monolayer (A). […] After 3 weeks of treatment, the GFP positive colonies in each well were counted (B).
Cell Culture and Viral Transduction: MEFs were derived from 12952/SvPasCrlf and ROSA26^+/−/OG2^+/− mice according to the protocol reported on WiCell Research Institute website: “Introduction to human embryonic stem cell culture methods”. ROSA26^+/−/OG2^+/− transgenic mice carry GFP reporter gene under the control of the Oct4 promoter (Oct4-GFP) and the ubiquitously expressed neo/lacZ transgene [Do J T, Scholer H R, Stem Cells, 22:941-949 (2004)]. Animal experiments were performed according to the Animal Protection Guidelines of the Max Planck Institute for Biomolecular Research, Germany. […] MEFs transduced with Oct4/Klf4/Sox2 (1×10^4 cells/well together with 10^5 cells/well CF1 feeders in 6-well plates) were then treated with GSK-3 inhibitor CHIR99021 (Stemgent) for two weeks, and EGFP positive colonies were picked up at the third week after treatment. MEFs transduced with Oct4/Klf4 (1×10^5 cells/well in 6-well plates) were treated with 10 μM CHIR99021 for four weeks, GFP positive colonies were picked up and expanded at the fourth to fifth week after treatment.
Cytochemistry and Immunofluorescence Assay: Alkaline Phosphatase staining was performed according to the manufacturer's protocol using the Alkaline Phosphatase Detection Kit (Millipore). For immunofluorescence assay, cells were fixed in 4% paraformaldehyde for 10 minutes and washed three times with PBS containing 0.1% Triton X-100 (Sigma-Aldrich). The fixed cells were then incubated in blocking buffer, 0.1% Triton X-100 and 10% normal donkey serum (Jackson ImmunoResearch Laboratories Inc) in PBS (Invitrogen/Gibco BRL), for 30 min at room temperature. […]

[3] = tested on: Sox2 and Oct4 expression in MEFs; assay: Real-time PCR of pluripotency gene expression in untransduced MEFs after treatment; assay type: cell-based, mouse; settings: 10 μM CHIR99021, three days
Source text: FIG. 2. […] Scale bars, 20μm. […] PCR analysis: […] The primer for viral Klf4 was [NT] and [NT]. The primer for FGF-4 was [NT] and [NT].

Nc1ncn([C@@H]2O[C@H](CO)[C@@H](O)[C@H]2O)c(=O)n1 [5-AZA]
improvement of reprogramming efficiency (MEF cells): up to 4 folds

COc1cc2nc(N3CCCN(C)CC3)nc(NC3CCN(Cc4ccccc4)CC3)c2cc1OC [BIX-01294]
enhancement of reprogramming efficiency [1]: over 8 fold

Cc1c[nH]c(-c2cnc(NCCNc3ccc(C#N)cn3)nc2-c2ccc(Cl)cc2Cl)n1 [CHIR99021]
concentration showing the greatest effects on reprogramming ([2]; Oct4/Sox2/Klf4-transduced ROSA26+/-/OG2+/- MEFs): about 10 μM | reprogramming efficiency (GFP-positive colonies) of transduced MEFs ([2]; about 10 μM CHIR99021, treated two weeks, counted after 3 weeks, without compound 0.03-0.08%): 0.2-0.4% | number of AP-positive mESC-like colonies ([2]; treated two weeks, AP staining at third week after treatment): significantly increased the number of alkaline phosphase (AP)-positive mESC-like colonies in a dose-dependent manner | induction of Sox2 and Oct4 expression in MEFs (real-time PCR) [3]: did not induce the expression of Sox2 and Oct4
